The record followed here is paper PMC10525516, “Novel NADPH Oxidase-2 Inhibitors as Potential Anti-Inflammatory and Neuroprotective Agents” (Antioxidants, 2023).

The nature of data set [1]: In vivo pharmacokinetics / brain penetration, species not specified (rodent models). The following applies: rat, intraperitoneal, 20 mg/kg, rodent models. An excerpt: (§1) Rapid metabolism and the inability to cross the BBB represent major obstacles in the application of bioactive agents in neurodegenerative diseases. Based on the premise that Nox2 plays a major role in oxidative damage and exacerbates neurodegenerative diseases, we envision applications of brain-permeable Nox2 inhibitors in mechanistic studies in vivo, and, long-term, in the development of novel therapeutic strategies. Therefore, we performed in vivo pharmacokinetics studies to determine the time profile of plasma concentration and accumulation of TG15-132 in the brain tissue of Sprague Dawley rats and C57BL6 mice.

For data set [2], the system named is THP-1 cells. The data set is described as follows: qRT-PCR mRNA expression of Nox2 subunits and inflammatory mediators in PMA-treated THP-1 cells. It is filed as cell-based, human. The following applies: 3 µM, 48 h with PMA 100 ng/mL. The method, then:
Human promyelocytic leukemia HL60 cells (Sigma-Aldrich) were grown in RPMI 1640 medium (Gibco, 11875-093, Billings, MT, USA) supplemented with 10% FBS (Omega Scientific (Tarzana, CA, USA)), 100 units/mL penicillin, and 100 µg/mL streptomycin, and were incubated at 37 °C and 5% carbon dioxide (CO2). For differentiation to neutrophil-like cells, HL60 cells were pelleted and resuspended in fresh media containing 1 µM of all trans-retinoic acid and incubated for four to five days. Nox2 activation was achieved by treating differentiated HL60 (dHL60) cells with 1 µM PMA [24]. Human leukemia monocytic cells, THP-1, were grown in RPMI 1640 medium + GlutaMAX^TM (Gibco, 61870-036) and supplemented with 10% FBS, 10 mM HEPES, and 1 mM sodium pyruvate and incubated at 37 °C in 5% CO2 environment. To induce differentiation into macrophages, THP-1 cells were treated with PMA (100 ng/mL) for 48 h. To test the efficacy of Nox2 inhibitors, treatment was performed with or without the inhibitor, along with PMA [35].
mRNA expression analysis was performed as previously described. Briefly, THP-1 cells were treated with PMA (100 ng/mL) with or without the Nox2 inhibitor TG15-132 (3.0 µM) for 48 h. RNA extraction was done using the Quick-RNA miniprep kit (cat. no. R1055, Zymo Research, Irvine, CA, USA) and followed by cDNA synthesis using the qScript cDNA superMix kit (cat. no. 84035, Quantabio, Beverly, MA, USA). Quantitative real-time PCR was performed using specific primers designed to amplify target genes (Table 2). Data obtained were analyzed and converted into fold changes in expression with respect to vehicle-treated cells.

A short description of data set [3]: Plasma and brain pharmacokinetics in Sprague Dawley rats. It is filed as in vivo. The method, then:
(§2) Blood samples were collected into labeled microtubes containing dipotassium EDTA solution (20%) as an anticoagulant. Plasma was immediately harvested from the blood by centrifugation at 4000 rpm for 10 min at 4 ± 2 °C and stored below −70 °C until bioanalysis. After isolation, brain tissue samples were rinsed three times in ice cold normal saline (for 5–10 s/rinse using ~5–10 mL normal saline in disposable petri dishes for each rinse) and dried on blotting paper. Tissue samples were homogenized using ice-cold phosphate-buffered saline (pH 7.4). The total homogenate volume (µL) was three times the tissue weight (mg). All homogenates were stored below −70 ± 10 °C until bioanalysis. Concentrations of TG15-132 in plasma and brain samples were determined by fit-for-purpose liquid chromatography with the tandem mass spectrometry method (Sai-Life, Hyderabad, India). Phoenix WinNonlin (version 8.0, Certara, Princeton, NJ, USA) was used to analyze the pharmacokinetic parameters.
as §1

The nature of data set [4]: Plasma and brain pharmacokinetics in C57BL/6 mice. It is filed as in vivo. The following applies: male, C57BL/6, mouse, ip, C57BL6 mice, single dose 20 mg/kg i.p. The method, then: TG15-132 at a 20 mg/kg dose in a vehicle formulation of 10% DMSO, 50% PEG400, and 40% reversed osmosis-purified water (v/v) was administered to healthy male C57BL/6 mice weighing an average of 27 g by intraperitoneal (i.p.) injection. Blood samples (approximately 60 μL) were collected from the retro-orbital plexus of three animals at times 0.08, 0.25, 0.5, 1, 2, 4, 8, and 24 h after compound administration. Along with the terminal blood samples, the brain samples were also collected at the time points 0.25, 0.5, 2.0, 4.0, 8.0, and 24 h.
as §2

As to `CN(C)CCCn1c(SCCc2c[nH]c3ccccc23)nc2ccc(F)cc2c1=O` [TG15-132], the Kp was over 5 in data set [1] (Sprague Dawley (rat), C57BL6 (mouse), mouse, brain, read-out: brain-to-plasma ratio (abstract)) and over 6 in data set [4] (brain, read-out: brain-to-plasma ratio). Also, the half-life in data set [1] (Sprague Dawley, plasma, read-out: plasma half-life (abstract) (converted)) was 5.6 h; in data set [3] (rat, brain, ip, single dose 20 mg/kg i.p., read-out: brain half-life (converted)) it was 5.6 h; in data set [3] (rat, plasma, ip, single dose 20 mg/kg i.p., read-out: plasma half-life (converted)), 3.7 h; in data set [4] (brain, read-out: brain half-life (converted)), 2.7 h; in data set [4] (plasma, read-out: plasma half-life (converted)), 2.7 h. Besides, the “mRNA expression vs PMA-treated cells, additional experiment (Figure 7B)” value in data set [2] was “statistically significant reduction in the expression of p47^phox, IL-1β, and TNF”. Moreover, the “mRNA expression vs cells treated with PMA alone (Figure 7A)” value in data set [2] is “reduced the expression of gp91^phox, p47^phox, p67^phox, IL-1β, and TNF”. The Kp at 8 h in data set [3] (rat, brain, ip, 20 mg/kg i.p., up to 8 h after administration, read-out: brain-to-plasma ratio) was over 10. In addition, the total exposure AUC(0-inf) in data set [3] (rat, plasma, ip, single dose 20 mg/kg i.p.) stood at 10200 ng·h/mL. Moreover, in data set [3] (single dose 20 mg/kg i.p.), the clearance rate was found to be 32.8 mL/min/kg.
